This is an account of results in patent US6437184B1, “Oxime compounds, their use, and intermediates for their production” (Sumitomo Chemical Company, Limited, priority 1997, dated 2002).

As a reminder, the melting point is the temperature of the solid-liquid transition. By mortality is commonly meant the share of the test organisms that died.

One series concerns Heliothis virescens. The series is described as follows: Insecticidal test against Heliothis virescens. It is filed as in vivo. The note with it: 168 h, 100 ppm water dilution, 0.2 ml on surface of artificial diet, second-instar larvae, after 7 days. As for the experimental part: A water dilution (100 ppm) of a test compound formulation obtained according to Formulation Example 1 was added dropwise at a volume of 0.2 ml and uniformly spread over the surface of an artificial diet having a weight of 3 g, which had been prepared in a 30 ml plastic cup. After air drying, one second-instar larva of Heliothis virescens was set free in each cup. Ten larvae were used for each treatment. After 7 days, the mortality of the larvae was determined.

A further series deals with Cydia pomonella. The series is described as follows: Insecticidal test against Cydia pomonella. The following applies: 168 h, 100 ppm water dilution, 0.2 ml on surface of artificial diet, eggs just before hatching, after 7 days. It is filed as in vivo. As for the experimental part:
A water dilution (100 ppm) of a test compound formulation obtained according to Formulation Example 1 was added dropwise at a volume of 0.2 ml and spread over the surface of an artificial diet having a weight of 3 g, which had been prepared in a 30 ml polyethylene cup. After air drying, placed in the cup was a piece of wax paper (about 2.5 cm square) having about 20 eggs which had been laid by Cydia pomonella and were just before hatching. Four pieces of such wax paper were used for each treatment. After 7 days, the mortality of the larvae was determined.

The subject of the next series is Plutella xylostella. The series is described as follows: Insecticidal test against Plutella xylostella. It counts as in vivo. The note with it: 96 h, 50 ppm water dilution sprayed over potted cabbages, 25 ml per pot, third-instar larvae, after 4 days, read-out: mortality. As for the experimental part: To a water dilution (50 ppm) of a test compound formulation obtained according to Formulation Example 1 was added a spreading agent (New RINOU available from Nihon Noyaku K.K.) at a dilution ratio of 3000-fold. The dilution was sprayed over potted cabbages at the four to five leaf stage at a volume of 25 ml per pot. After the treated plants were air dried, ten third-instar larvae of Plutella xylostella were set free on each pot. After 4 days, the mortality was determined.

For another series, the system named is Helicoverpa armigera. The experiment in a line: Insecticidal test against Helicoverpa armigera. It counts as in vivo. The following applies: 120 h, 100 ppm water dilution, cotton leaf fragment immersed 10 seconds, third-instar larvae, after 5 days. As for the experimental part:
A cotton leaf fragment (diameter, 5 cm) was immersed for 10 seconds Lin a water dilution (100 ppm) of a test compound formulation obtained according to Formulation Example 1. This fragment was taken out from the dilution, air dried, and placed in a polyethylene cup having a diameter of 5.5 cm. One third-instar larva of Helicoverpa armigera was set free in each cup. Ten larvae were used for each treatment. After 5 days, the mortality of the larvae was determined.

In the next series the test system is Musca domestica. The experiment in a line: Insecticidal test against Musca domestica. It counts as in vivo. The note with it: 24 h, 500 ppm water dilution, 0.7 ml on filter paper with sucrose, female adults, after 1 day, read-out: mortality. As to the method:
In the bottom of a polyethylene cup having a diameter of 5.5 cm was placed a piece of filter paper having the same size. A 200-fold water dilution (500 ppm) of a test compound formulation obtained according to Formulation Example 1 was added dropwise at a volume of 0.7 ml on the filter paper, and about 30 mg of sucrose as a diet was uniformly placed thereon. Ten female adults of houseflies (Musca domestica) were set free in the cup, and the cup was kept covered. After 1 day, the survival of the adults was determined to determine the mortality.

As to `O=[N+]([O-])c1ccc(ON=CCCCCOc2c(Cl)cc(OCC=C(Cl)Cl)cc2Cl)c([N+](=O)[O-])c1`, the melting point was 65.2 °C.

In the series on Heliothis virescens, `ClC(Cl)=CCOc1cc(Cl)c(OCCCCOCC=NOCC=C(Br)Br)c(Cl)c1` [(3), 4-(2,6-dichloro-4-(3,3-dichloro-2-propenyloxy)phenoxy)butyloxyacetaldehyde O-(3,3-dibromo-2-propenyl)oxime] showed a mortality at 100 µg/mL not below 80%.

Consider `ClC(Cl)=CCOc1cc(Cl)c(OCCCCOCC=NOCc2ccccc2)c(Cl)c1` [(5), 4-(2,6-dichloro-4-(3,3-dichloro-2-propenyloxy)phenoxy)butyloxyacetaldehyde O-benzyloxime], for which the mortality at 100 µg/mL in the series with Heliothis virescens was not below 80%.

`CCON=C(C)COc1c(Cl)cc(OCC=C(Cl)Cl)cc1Cl` [(30), (2,6-dichloro-4-(3,3-dichloro-2-propenyloxy)phenoxy)acetone O-ethyloxime] returned a melting point of 65.4 °C.

For `ClC(Cl)=CCON=CCCCCCOc1c(Cl)cc(OCC=C(Cl)Cl)cc1Cl` [(76), 6-(2,6-dichloro-4-(3,3-dichloro-2-propenyloxy)phenoxy)hexanal O-(3,3-dichloro-2-propenyl)oxime], the mortality at 100 µg/mL with Heliothis virescens and in the series with Cydia pomonella was not below 80% throughout. Moreover, in the series on Plutella xylostella, the mortality at 50 µg/mL was not below 80%.

`ON=CCOCCCCOc1c(Cl)cc(OCC=C(Cl)Cl)cc1Cl` [(148), 4-(2,6-dichloro-4-(3,3-dichloro-2-propenyloxy)phenoxy)butyloxyacetaldehyde oxime] yielded a melting point of 62.8 °C.

In the series with Heliothis virescens, `ClC(Cl)=CCOc1cc(Cl)c(OCCCCCOCC=NOCC(Cl)(Cl)Cl)c(Cl)c1` [(160), 5-(2,6-dichloro-4-(3,3-dichloro-2-propenyloxy)phenoxy)pentyloxyacetaldehyde O-(2,2,2-trichloroethyl)oxime] returned a mortality at 100 µg/mL not below 80%.

`ClC(Cl)=CCON=Cc1ccc(COc2c(Cl)cc(OCC=C(Cl)Cl)cc2Cl)cc1` [(279), 4-(2,6-dichloro-4-(3,3-dichloro-2-propenyloxy)phenoxymethyl)benzaldehyde O-(3,3-dichloro-2-propenyl)oxime]: the mortality at 100 µg/mL with Helicoverpa armigera and in the series on Cydia pomonella was not below 80% in each case. Also, in the series with Plutella xylostella, the mortality at 50 µg/mL is not below 80%.

In the case of `ClC(Cl)=CCON=Cc1ccc(COc2c(Cl)cc(OCC=C(Br)Br)cc2Cl)cc1` [(280), 4-(2,6-dichloro-4-(3,3-dibromo-2-propenyloxy)phenoxymethyl)benzaldehyde O-(3,3-dichloro-2-propenyl)oxime], the melting point was 88.2 °C.

Consider `ClC(Cl)=CCOc1cc(Cl)c(OCCOc2ccc(C=NOCC=C(Br)Br)cc2)c(Cl)c1` [(282), 4-(2-(2,6-dichloro-4-(3,3-dichloro-2-propenyloxy)phenoxy)-ethoxy)benzaldehyde O-(3,3-dibromo-2-propenyl)oxime], for which the melting point was 90.8 °C.

In turn, `ClC(Cl)=CCON=Cc1ccc(OCCCOc2c(Cl)cc(OCC=C(Cl)Cl)cc2Cl)cc1` [(283), 4-(3-(2,6-dichloro-4-(3,3-dichloro-2-propenyloxy)phenoxy)propyloxy)benzaldehyde O-(3,3-dichloro-2-propenyl)oxime] showed a mortality at 100 µg/mL in the series on Helicoverpa armigera not below 80%. Besides, the mortality at 50 µg/mL in the series with Plutella xylostella was not below 80%.

As for `CCON=C(C)c1ccc(OCCCOc2c(Cl)cc(OCC=C(Cl)Cl)cc2Cl)cc1` [(293), 4′-(3-(2,6-dichloro-4-(3,3-dichloro-2-propenyloxy)phenoxy)propyloxy)acetophenone O-ethyloxime], the mortality at 100 µg/mL in the series on Helicoverpa armigera and in the series with Cydia pomonella was not below 80% throughout.

As for `CC(=NOC(C)(C)C)c1ccc(OCCCCOc2c(Cl)cc(OCC=C(Cl)Cl)cc2Cl)cc1` [(298), 4′-(4-(2,6-dichloro-4-(3,3-dichloro-2-propenyloxy)phenoxy)butyloxy)acetophenone O-tert-butyloxime], the melting point was found to be 56.4 °C.

In the case of `CON=Cc1ccc(COc2c(Cl)cc(OCC=C(Cl)Cl)cc2Cl)cc1` [(311), 4-(2,6-dichloro-4-(3,3-dichloro-2-propenyloxy)phenoxymethyl)benzaldehyde O-methyloxime], the melting point was 95.9 °C.

`ClC(Cl)=CCOc1cc(Cl)c(OCc2ccc(C=NOCc3ccccc3)cc2)c(Cl)c1` [(313), 4-(2,6-dichloro-4-(3,3-dichloro-2-propenyloxy)phenoxymethyl)benzaldehyde O-benzyloxime]: the melting point is 70.3 °C.

Take `CCON=C(C)c1ccc(OCCCCCOc2c(Cl)cc(OCC=C(Cl)Cl)cc2Cl)cc1` [(321), 4′-(5-(2,6-dichloro-4-(3,3-dichloro-2-propenyloxy)phenoxy)-pentyloxy)acetophenone O-ethyloxime]: the melting point was 56.1 °C.

Turning to `CCON=Cc1ccc(COc2c(Cl)cc(OCC=C(Cl)Cl)cc2Cl)cc1` [(326), 4-(2,6-dichloro-4-(3,3-dichloro-2-propenyloxy)phenoxymethyl)benzaldehyde O-ethyloxime], the melting point was 84.8 °C.

In turn, `ON=Cc1ccc(OCCCCCOc2c(Cl)cc(OCC=C(Cl)Cl)cc2Cl)cc1` [(333), 4-(5-(2,6-dichloro-4-(3,3-dichloro-2-propenyloxy)phenoxy)pentyloxy)benzaldehyde oxime] gave a melting point of 90.1 °C.

Take `CC(=NO)c1ccc(OCCOc2c(Cl)cc(OCC=C(Cl)Cl)cc2Cl)cc1` [(337), 4′-(2-(2,6-dichloro-4-(3,3-dichloro-2-propenyloxy)phenoxy)-ethoxy)acetophenone oxime]: the melting point stood at 121 °C.

Turning to `CCCON=C(C)c1ccc(COc2c(Cl)cc(OCC=C(Cl)Cl)cc2Cl)cc1` [(346), 4′-(2,6-dichloro-4-(3,3-dichloro-2-propenyloxy)phenoxymethyl)acetophenone O-propyloxime], the mortality at 100 µg/mL in the series on Heliothis virescens is not below 80%.

`ClC(Cl)=CCON=CCOc1ccc(COc2c(Cl)cc(OCC=C(Cl)Cl)cc2Cl)cc1` [(360), 2-(4-(2,6-dichloro-4-(3,3-dichloro-2-propenyloxy)phenoxymethyl)phenoxy)acetaldehyde O-(3,3-dichloro-2-propenyl)oxime] showed a melting point of 87.9 °C.

With `ClC(Cl)=CCOc1cc(Cl)c(OCCCON=Cc2ccccc2)c(Cl)c1` [(523), benzaldehyde O-(3-(2,6-dichloro-4-(3,3-dichloro-2-propenyloxy)phenoxy)propyl)oxime], in the series on Heliothis virescens, the mortality at 100 µg/mL is not below 80%. Also, the mortality at 50 µg/mL in the series with Plutella xylostella is not below 80%.

In the series on Helicoverpa armigera, `CC(C)(C)C=NOCCCCCOc1c(Cl)cc(OCC=C(Cl)Cl)cc1Cl` [(545), trimethylacetaldehyde O-(5-(2,6-dichloro-4-(3,3-dichloro-2-propenyloxy)phenoxy)pentyl)oxime] had a mortality at 100 µg/mL not below 80%. In addition, the mortality at 500 µg/mL with Musca domestica is not below 80%.

Turning to `CC(=NOCCCCCOc1c(Cl)cc(OCC=C(Cl)Cl)cc1Cl)C(C)(C)C` [(559), 3,3-dimethyl-2-butanone O-(5-(2,6-dichloro-4-(3,3-dichloro-2-propenyloxy)phenoxy)pentyl)oxime], the mortality at 100 µg/mL in the series with Heliothis virescens is not below 80%.

For `CC(=NOCCCCOc1c(Cl)cc(OCC=C(Cl)Cl)cc1Cl)C(C)(C)C` [(562), 3,3-dimethyl-2-butanone O-(4-(2,6-dichloro-4-(3,3-dichloro-2-propenyloxy)phenoxy)butyl)oxime], the mortality at 100 µg/mL with Helicoverpa armigera is not below 80%.

Compound `CC(CC(C)C)=NOCCCCCOc1c(Cl)cc(OCC=C(Cl)Cl)cc1Cl` [(564), 4-methyl-2-pentanone O-(5-(2,6-dichloro-4-(3,3-dichloro-2-propenyloxy)phenoxy)pentyl)oxime] came in with a mortality at 100 µg/mL in the series with Helicoverpa armigera not below 80%.

For `CC(=NOCCCCCOc1c(Cl)cc(OCC=C(Cl)Cl)cc1Cl)c1ccc(Cl)nc1` [(569), 6-chloro-3-pyridyl methyl ketone O-(5-(2,6-dichloro-4-(3,3-dichloro-2-propenyloxy)phenoxy)pentyl)oxime], the melting point turned out to be 67.7 °C.

For the compound `N#Cc1ccc(C=NOCCCCOc2c(Cl)cc(OCC=C(Cl)Cl)cc2Cl)cc1` [(691), 4-cyanobenzaldehyde O-(4-(2,6-dichloro-4-(3,3-dichloro-2-propenyloxy)phenoxy)butyl)oxime], the melting point amounted to 71.2 °C.
